Experimental data as given in PubChem BioAssay AID1918955 (Molecular Pharmacology Branch, DTP, NCI, 2023).

System: NCI/ADR-RES complex spheroid viability
Test: Anticancer human tumor NCI/ADR-RES cell line growth inhibition;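 also: spheroids exposed to compounds for 7 days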;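 as to viability, T/C: 100% = DMSO vehicle treated spheroids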
Details: for IC50: curve of first compound; for viability, T/C: stronger effect = lower value
Procedure, shortened: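 Drug combinations with the LSD1 inhibitor iadademstat tested on tumor cells co-cultured as spheroids with endothelial cells and mesenchymal stem cells. Concentrations descended in half-log increments from clinical Cmax or 10 microM.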

[1] = second compound 0.1 µM, first compound 0.0316 µM
[2] = second compound 0.1 µM, first compound 0.1 µM
[3] = second compound 0.1 µM, first compound 0.316 µM
[4] = second compound 0.1 µM, first compound 1 µM
[5] = second compound 0.1 µM, first compound 3.16 µM
[6] = second compound 0.1 µM, first compound 10 µM
[7] = second compound 0.316 µM, first compound 0.0316 µM
[8] = second compound 0.316 µM, first compound 0.1 µM
[9] = second compound 0.316 µM, first compound 0.316 µM
[10] = second compound 0.316 µM, first compound 1 µM
[11] = second compound 0.316 µM, first compound 3.16 µM
[12] = second compound 0.316 µM, first compound 10 µM
[13] = second compound 1 µM, first compound 0.0316 µM
[14] = second compound 1 µM, first compound 0.1 µM
[15] = second compound 1 µM, first compound 0.316 µM
[16] = second compound 1 µM, first compound 1 µM
[17] = second compound 1 µM, first compound 3.16 µM
[18] = second compound 1 µM, first compound 10 µM
[19] = second compound 3.16 µM, first compound 0.0316 µM
[20] = second compound 3.16 µM, first compound 0.1 µM
[21] = second compound 3.16 µM, first compound 0.316 µM
[22] = second compound 3.16 µM, first compound 1 µM
[23] = second compound 3.16 µM, first compound 3.16 µM
[24] = second compound 3.16 µM, first compound 10 µM
[25] = second compound 10 µM, first compound 0.0316 µM
[26] = second compound 10 µM, first compound 0.1 µM
[27] = second compound 10 µM, first compound 0.316 µM
[28] = second compound 10 µM, first compound 1 µM
[29] = second compound 10 µM, first compound 3.16 µM
[30] = second compound 10 µM, first compound 10 µM
[31] = second compound 0.1 µM, first compound 0.00316 µM
[32] = second compound 0.1 µM, first compound 0.01 µM
[33] = second compound 0.316 µM, first compound 0.00316 µM
[34] = second compound 0.316 µM, first compound 0.01 µM
[35] = second compound 1 µM, first compound 0.00316 µM
[36] = second compound 1 µM, first compound 0.01 µM
[37] = second compound 3.16 µM, first compound 0.00316 µM
[38] = second compound 3.16 µM, first compound 0.01 µM
[39] = second compound 10 µM, first compound 0.00316 µM
[40] = second compound 10 µM, first compound 0.01 µM

For `CC(C)c1c(-c2ccccc2)nc2c(C#N)c[nH]n2c1=O` + NC1CC1c1ccc(-c2cccc(O)c2)cc1, the IC50 (second compound 0.1 µM) was greater than 10000 nM, the IC50 (second compound 0.316 µM) was greater than 10000 nM and the IC50 (second compound 1 µM) was greater than 10000 nM. The IC50 (second compound 3.16 µM) was greater than 10000 nM, the IC50 (second compound 10 µM) was greater than 10000 nM and the viability, T/C [1] was 104%. The viability, T/C [2] was 107%, the viability, T/C [3] was 102% and the viability, T/C [4] was 103%. It also gave a viability, T/C [5] of 108%, a viability, T/C [6] of 95.3% and a viability, T/C [7] of 113%. For the same molecule, the viability, T/C [8] was 106%, the viability, T/C [9] was 104% and the viability, T/C [10] was 102%. The viability, T/C [11] was 109%, the viability, T/C [12] was 98.9% and the viability, T/C [13] was 109%. For the same molecule, the viability, T/C [14] was 101%, the viability, T/C [15] was 106% and the viability, T/C [16] was 106%. It also gave a viability, T/C [17] of 100%, a viability, T/C [18] of 96.5% and a viability, T/C [19] of 106%. It also gave a viability, T/C [20] of 108%, a viability, T/C [21] of 106% and a viability, T/C [22] of 107%. The viability, T/C [23] was 97.6%, the viability, T/C [24] was 98.9% and the viability, T/C [25] was 87%. The viability, T/C [26] was 96.3%, the viability, T/C [27] was 91.7% and the viability, T/C [28] was 91.2%. For the same molecule, the viability, T/C [29] was 89.2% and the viability, T/C [30] was 84.2%.

In the case of `COc1ccc([C@@H](O)c2cc(-c3ncnc4cc(N5CCOCC5)ccc34)c(F)cc2Cl)nn1` + NC1CC1c1ccc(-c2cccc(O)c2)cc1, the IC50 (second compound 0.1 µM) is reported as 3050 nM, the IC50 (second compound 0.316 µM) is reported as 3240 nM and the IC50 (second compound 1 µM) is reported as 3230 nM. For the same molecule, the IC50 (second compound 3.16 µM) was 3250 nM, the IC50 (second compound 10 µM) was 1940 nM and the viability, T/C [1] was 106%. It also gave a viability, T/C [2] of 99.8%, a viability, T/C [3] of 84.8% and a viability, T/C [4] of 68.4%. The viability, T/C [5] was 50.7%, the viability, T/C [6] was 25.9% and the viability, T/C [7] was 106%. For the same molecule, the viability, T/C [8] was 105%, the viability, T/C [9] was 92.7% and the viability, T/C [10] was 74%. It also gave a viability, T/C [11] of 51.4%, a viability, T/C [12] of 27.7% and a viability, T/C [13] of 105%. The viability, T/C [14] was 99.1%, the viability, T/C [15] was 90.6% and the viability, T/C [16] was 73.1%. For the same molecule, the viability, T/C [17] was 50.5%, the viability, T/C [18] was 25.7% and the viability, T/C [19] was 101%. It also gave a viability, T/C [20] of 96%, a viability, T/C [21] of 83.4% and a viability, T/C [22] of 72.4%. For the same molecule, the viability, T/C [23] was 50.5%, the viability, T/C [24] was 22.6% and the viability, T/C [25] was 84.6%. The viability, T/C [26] was 87.3%, the viability, T/C [27] was 77% and the viability, T/C [28] was 61.8%. It also gave a viability, T/C [29] of 41.4% and a viability, T/C [30] of 23.2%.

With `CC[C@@]1(O)C(=O)OCc2c1cc1n(c2=O)Cc2cc3c(CN(C)C)c(O)ccc3nc2-1` + NC1CCC(NC2CC2c2ccccc2)CC1 the IC50 (second compound 0.1 µM) was 8.31 nM, the IC50 (second compound 0.316 µM) was 8.18 nM and the IC50 (second compound 1 µM) was 9.09 nM. It also gave an IC50 (second compound 3.16 µM) of 7.45 nM, an IC50 (second compound 10 µM) of 5.56 nM and a viability, T/C (second compound 0.1 µM, first compound 0.000316 µM) of 104%. It also gave a viability, T/C (second compound 0.1 µM, first compound 0.001 µM) of 97.8%, a viability, T/C [31] of 86.5% and a viability, T/C [32] of 43.4%. For the same molecule, the viability, T/C [1] was 9.03%, the viability, T/C [2] was 3.21% and the viability, T/C (second compound 0.316 µM, first compound 0.000316 µM) was 118%. The viability, T/C (second compound 0.316 µM, first compound 0.001 µM) was 116%, the viability, T/C [33] was 86.7% and the viability, T/C [34] was 42.9%. The viability, T/C [7] was 10.8%, the viability, T/C [8] was 2.57% and the viability, T/C (second compound 1 µM, first compound 0.000316 µM) was 103%. For the same molecule, the viability, T/C (second compound 1 µM, first compound 0.001 µM) was 103%, the viability, T/C [35] was 92.9% and the viability, T/C [36] was 46.2%. The viability, T/C [13] was 8.05%, the viability, T/C [14] was 2.63% and the viability, T/C (second compound 3.16 µM, first compound 0.000316 µM) was 108%. The viability, T/C (second compound 3.16 µM, first compound 0.001 µM) was 98.8%, the viability, T/C [37] was 91.3% and the viability, T/C [38] was 35.6%. The viability, T/C [19] was 10.1%, the viability, T/C [20] was 4.55% and the viability, T/C (second compound 10 µM, first compound 0.000316 µM) was 98.5%. For the same molecule, the viability, T/C (second compound 10 µM, first compound 0.001 µM) was 95.3%, the viability, T/C [39] was 66.8% and the viability, T/C [40] was 32%. The viability, T/C [25] was 7.06% and the viability, T/C [26] was 2.23%.

With `COc1cc(C2c3cc4c(cc3C(OC3OC5COC(C)OC5C(O)C3O)C3COC(=O)C23)OCO4)cc(OC)c1O` (stereo not given) + NC1CCC(NC2CC2c2ccccc2)CC1 the IC50 (second compound 0.1 µM) was greater than 3000 nM, the IC50 (second compound 0.316 µM) was greater than 3000 nM and the IC50 (second compound 1 µM) was greater than 3000 nM. It also gave an IC50 (second compound 3.16 µM) greater than 3000 nM, an IC50 (second compound 10 µM) greater than 3000 nM and a viability, T/C (second compound 0.1 µM, first compound 0.00949 µM) of 92.9%. It also gave a viability, T/C (second compound 0.1 µM, first compound 0.03 µM) of 103%, a viability, T/C (second compound 0.1 µM, first compound 0.0949 µM) of 99.4% and a viability, T/C (second compound 0.1 µM, first compound 0.3 µM) of 100%. For the same molecule, the viability, T/C (second compound 0.1 µM, first compound 0.949 µM) was 98.3%, the viability, T/C (second compound 0.1 µM, first compound 3 µM) was 91.1% and the viability, T/C (second compound 0.316 µM, first compound 0.00949 µM) was 101%. For the same molecule, the viability, T/C (second compound 0.316 µM, first compound 0.03 µM) was 101%, the viability, T/C (second compound 0.316 µM, first compound 0.0949 µM) was 103% and the viability, T/C (second compound 0.316 µM, first compound 0.3 µM) was 100%. It also gave a viability, T/C (second compound 0.316 µM, first compound 0.949 µM) of 95.6%, a viability, T/C (second compound 0.316 µM, first compound 3 µM) of 94.4% and a viability, T/C (second compound 1 µM, first compound 0.00949 µM) of 98.8%. It also gave a viability, T/C (second compound 1 µM, first compound 0.03 µM) of 96.5%, a viability, T/C (second compound 1 µM, first compound 0.0949 µM) of 95.8% and a viability, T/C (second compound 1 µM, first compound 0.3 µM) of 96.6%. The viability, T/C (second compound 1 µM, first compound 0.949 µM) was 94.7%, the viability, T/C (second compound 1 µM, first compound 3 µM) was 91.3% and the viability, T/C (second compound 3.16 µM, first compound 0.00949 µM) was 96.9%. It also gave a viability, T/C (second compound 3.16 µM, first compound 0.03 µM) of 91.8%, a viability, T/C (second compound 3.16 µM, first compound 0.0949 µM) of 99.2% and a viability, T/C (second compound 3.16 µM, first compound 0.3 µM) of 97.3%. The viability, T/C (second compound 3.16 µM, first compound 0.949 µM) was 94.5%, the viability, T/C (second compound 3.16 µM, first compound 3 µM) was 86.1% and the viability, T/C (second compound 10 µM, first compound 0.00949 µM) was 93%. The viability, T/C (second compound 10 µM, first compound 0.03 µM) was 92%, the viability, T/C (second compound 10 µM, first compound 0.0949 µM) was 86.3% and the viability, T/C (second compound 10 µM, first compound 0.3 µM) was 90.3%. It also gave a viability, T/C (second compound 10 µM, first compound 0.949 µM) of 81.6% and a viability, T/C (second compound 10 µM, first compound 3 µM) of 82%.

`Nc1ncn(C2CC(O)C(CO)O2)c(=O)n1` (stereo not given) + NC1CCC(NC2CC2c2ccccc2)CC1 was tested, and the IC50 (second compound 0.1 µM) was 82.7 nM, the IC50 (second compound 0.316 µM) was 126 nM and the IC50 (second compound 1 µM) was 76.7 nM. The IC50 (second compound 3.16 µM) was 59.7 nM, the IC50 (second compound 10 µM) was 18.5 nM and the viability, T/C [31] was 109%. The viability, T/C [32] was 113%, the viability, T/C [1] was 73.4% and the viability, T/C [2] was 48.6%. For the same molecule, the viability, T/C [3] was 26.1%, the viability, T/C [4] was 23.5% and the viability, T/C [33] was 106%. The viability, T/C [34] was 91%, the viability, T/C [7] was 78.3% and the viability, T/C [8] was 53%. The viability, T/C [9] was 33.8%, the viability, T/C [10] was 18.9% and the viability, T/C [35] was 105%. The viability, T/C [36] was 91.7%, the viability, T/C [13] was 74.6% and the viability, T/C [14] was 41%. For the same molecule, the viability, T/C [15] was 28.2%, the viability, T/C [16] was 19.4% and the viability, T/C [37] was 93.3%. The viability, T/C [38] was 83.3%, the viability, T/C [19] was 63.1% and the viability, T/C [20] was 40%. The viability, T/C [21] was 24.1%, the viability, T/C [22] was 20.8% and the viability, T/C [39] was 63%. For the same molecule, the viability, T/C [40] was 57.8%, the viability, T/C [25] was 43.1% and the viability, T/C [26] was 27.3%. For the same molecule, the viability, T/C [27] was 17.2% and the viability, T/C [28] was 15.9%.
